# Assays:
# [1] = test system: large crabgrass; assay: Test F preemergence; type: in vivo, Digitaria sanguinalis
# Procedure, shortened: (§1)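 Greenhouse study; evaluation window 14–21 days post-treatment. Seedlings sprayed postemergence measured 2–18 cm, while preemergence treatments went on silt loam soil. Non-phytotoxic solvent mixture with surfactant served as vehicle; response assessed by eye, 0–100 scale.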
# [2] = test system: johnsongrass; assay: Test F preemergence; type: in vivo, Sorghum halepense
# Procedure, shortened: as §1
# [3] = test system: speedwell; assay: Test D postemergence; type: in vivo, Veronica persica; conditions: scale 0 to 100
# Text: (§2) Seeds of plant species selected from bluegrass (annual bluegrass, Poa annua), blackgrass (Alopecurus myosuroides), canarygrass (littleseed canarygrass, Phalaris minor), chickweed (common chickweed, Stellaria media), galium (catchweed bedstraw, Galium aparine), bromegrass, downy (downy bromegrass, Bromus tectorum), field poppy (Papaver rhoeas), field violet (Viola arvensis), foxtail, green (green foxtail, Setaria viridis), deadnettle (henbit deadnettle, Lamium amplexicaule), ryegrass, Italian (Italian ryegrass, Lolium multiflorum), kochia (Kochia scoparia), lambsquarters (Chenopodium album), oilseed rape (Brassica napus), pigweed (redroot pigweed, Amaranthus retroflexus), chamomile (scentless chamomile, Matricaria inodora), speedwell (bird's-eye speedwell, Veronica persica), barley, spring (spring barley, Hordeum vulgare), wheat, spring (spring wheat, Triticum aestivum), buckwheat, wild (wild buckwheat, Polygonum convolvulus), mustard, wild (wild mustard, Sinapis arvensis), oat, wild (wild oat, Avena fatua), radish, wild (wild radish, Raphanus raphanistrum), windgrass (Apera spica-venti), Russian thistle (Salsola kali), barley, winter (winter barley, Hordeum vulgare), and wheat, winter (winter wheat, Triticum aestivum) were planted into a silt loam soil and treated preemergence with test chemicals formulated in a non-phytotoxic solvent mixture which included a surfactant.
# (§3) At the same time, these species were planted in pots containing Redi-Earth® planting medium (Scotts Company, 14111 Scottslawn Road, Marysville, Ohio 43041) comprising spaghnum peat moss, vermiculite, wetting agent and starter nutrients and treated with postemergence applications of the test chemicals formulated in the same manner. Plants ranged in height from 2 to 18 cm (1- to 4-leaf stage). Treated plants and controls were maintained in a controlled growth environment for 14 to 21 days after which time all species were compared to controls and visually evaluated. Plant response ratings, summarized in Table D, are based on a scale of 0 to 100 where 0 is no effect and 100 is complete control. A dash (-) response means no test result.
# [4] = test system: velvetleaf; assay: Test F preemergence; type: in vivo, Abutilon theophrasti
# Text: Seeds of plant species selected from corn (Zea mays), soybean (Glycine max), velvetleaf (Abutilon theophrasti), lambsquarters (Chenopodium album), wild poinsettia (Euphorbia heterophylla), pigweed, palmer (palmer pigweed, Amaranthus palmeri), common waterhemp (Amaranthus rudis), surinam grass (Brachiaria decumbens), large crabgrass (Digitaria sanguinalis), crabgrass, Brazil (Brazilian crabgrass, Digitaria horizontalis), fall panicum (Panicum dichotomiflorum), giant foxtail (Setaria faberii), green foxtail (Setaria viridis), goosegrass (Eleusine indica), johnsongrass (Sorghum halepense), common ragweed (Ambrosia elation), barnyardgrass (Echinochloa crus-galli), southern sandbur (Cenchrus echinatus), arrowleaf sida (Sida rhombifolia), Italian ryegrass (Lolium multiflorum), dayflower, VA (Virginia (VA) dayflower, Commelina virginica), field bindweed (Convolvulus arvensis), cocklebur (common cocklebur, Xanthium strumarium), morningglory (Ipomoea coccinea), nightshade (eastern black nightshade, Solanum ptycanthum), kochia (Kochia scoparia), yellow nutsedge (Cyperus esculentus), and hairy beggarticks (Bidens pilosa), were planted into a silt loam soil and treated preemergence with test chemicals formulated in a non-phytotoxic solvent mixture which included a surfactant.
# At the same time, plants from these crop and weed species and also horseweed (Canada horseweed, Conyza canadensis), smartweed (ladysthumb smartweed, Polygonum persicaria), waterhemp_RES1, (ALS & Triazine resistant common waterhemp, Amaranthus rudis), and waterhemp_RES2, (ALS & HPPD resistant common waterhemp, Amaranthus rudis) were treated with postemergence applications of test chemicals formulated in the same manner. Plants ranged in height from 2 to 18 cm for postemergence treatments (1- to 4-leaf stage). Treated plants and controls were maintained in a greenhouse for 14 to 21 days, after which time all species were compared to controls and visually evaluated. Plant response ratings, summarized in Table F, are based on a scale of 0 to 100 where 0 is no effect and 100 is complete control. A dash (-) response means no test result.
# [5] = test system: bromegrass, downy; assay: Test D preemergence; type: in vivo, Bromus tectorum; conditions: scale 0 to 100
# Text: as §2, §3
# [6] = test system: oilseed rape; assay: Test D preemergence; type: in vivo, Brassica napus; conditions: scale 0 to 100
# Text: as §2, §3
# [7] = test system: Italian ryegrass; assay: Test A preemergence; type: in vivo, Lolium multiflorum
# Procedure, shortened: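 Visual injury rating, 0–100 (0 no effect, 100 complete control), vs untreated controls ~10 days after treatment in greenhouse. Pre: directed soil spray on seeded loam/sand. Post: 2–10 cm plants, 1–2 leaf stage. Formulation: non-phytotoxic solvent mix + surfactant.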
# [8] = Preemergence, 31 g ai/ha, scale 0 to 100
# [9] = Preemergence, 62 g ai/ha, scale 0 to 100
# [10] = Preemergence, 125 g ai/ha, scale 0 to 100
# [11] = preemergence, 8 g ai/ha, scale 0 to 100, 100 is complete control
# [12] = preemergence, 16 g ai/ha, scale 0 to 100, 100 is complete control
# [13] = 125 g ai/ha, visual injury, 0 to 100 scale, approx. 10 days
# [14] = 500 g ai/ha, visual injury after approx. 10 days, 0 to 100 scale (0 no effect, 100 complete control)
# [15] = preemergence, scale 0 to 100, 100 is complete control
SMILES,"Plant response rating, Large Crabgrass [1, 9]","Plant response rating, Large Crabgrass [1, 10]","Plant response rating, Large Crabgrass [1, 11]","Plant response rating, Johnsongrass [2, 9]","Plant response rating, Johnsongrass [2, 10]","Plant response rating, Johnsongrass [2, 11]","Speedwell plant response rating ([3]; Postemergence, 31 g ai/ha)","Speedwell plant response rating ([3]; Postemergence, 125 g ai/ha)","Speedwell plant response rating ([3]; Postemergence, 250 g ai/ha)","Speedwell plant response rating ([3]; postemergence, 62 g ai/ha)","Plant response rating, Velvetleaf [4, 9]","Plant response rating, Velvetleaf [4, 10]","Plant response rating, Velvetleaf [4, 11]","Plant response rating, Bromegrass, Downy ([5]; 31 g ai/ha)","Plant response rating, Bromegrass, Downy ([5]; 62 g ai/ha)","Plant response rating, Bromegrass, Downy ([5]; 125 g ai/ha)","Plant response rating, Bromegrass, Downy ([5]; 250 g ai/ha)","Plant response rating, Oilseed Rape ([6]; 62 g ai/ha)","Plant response rating, Oilseed Rape ([6]; 125 g ai/ha)","Plant response rating, Oilseed Rape ([6]; 250 g ai/ha)",further results
"CCc1cc(C(=O)NCC(F)(F)F)nn1Cc1ccnc(C(F)(F)F)c1 [Compound 78, 5-ethyl-N-(2,2,2-trifluoroethyl)-1-[[(2-trifluoromethyl)-4-pyridinyl]methyl]-1H-pyrazole-3-carboxamide]",100,100,75,95,100,20,45,80,90,60,75,95,5,10,20,70,75,80,100,100,"Plant response rating, Large Crabgrass [1, 8]: 100; Plant response rating, Large Crabgrass [1, 12]: 98; Plant response rating, Johnsongrass [2, 8]: 30; Plant response rating, Johnsongrass [2, 12]: 20; Plant response rating, Velvetleaf [4, 8]: 10; Plant response rating, Oilseed Rape ([6]; 31 g ai/ha): 35"
CCCc1cc(C(=O)NCC(F)(F)F)nn1Cc1ccnc(C(F)(F)F)c1 [Compound 105],100,100,65,98,98,0,60,70,95,80,20,40,0,5,15,55,95,10,70,95,"Plant response rating, Large Crabgrass [1, 8]: 98; Plant response rating, Large Crabgrass [1, 12]: 70; Plant response rating, Johnsongrass [2, 8]: 75; Plant response rating, Johnsongrass [2, 12]: 25; Plant response rating, Velvetleaf [4, 8]: 0; Plant response rating, Velvetleaf [4, 12]: 0; Plant response rating, Oilseed Rape ([6]; 31 g ai/ha): 0"
CCONC(=O)c1cc(CC)n(Cc2cc(C(F)(F)F)no2)n1 [Compound 125],,,,,,,,,,,,,,,,,,,,,"Italian Ryegrass plant response rating [7, 13]: 20; Italian Ryegrass plant response rating [7, 14]: 100"
CCOc1cc(C(=O)NC2CC2)nn1Cc1ccnc(OC(F)F)c1 [Compound 133],,,,,,,,,,,,,,,,,,,,,"Italian Ryegrass plant response rating [7, 13]: 40; Italian Ryegrass plant response rating [7, 14]: 90"
CCOc1cc(C(=O)NC(C)C)nn1Cc1ccnc(C(F)(F)F)c1 [Compound 188],100,100,90,80,95,0,75,80,90,75,100,100,0,20,75,85,100,85,100,100,"Plant response rating, Large Crabgrass [1, 15]: 100; Plant response rating, Velvetleaf [4, 15]: 20"
CCc1cc(C(=O)NCC(F)(F)F)nn1Cc1cc(OC(F)F)nn1C [Compound 206],,,,,,,,,,,,,,,,,,,,,"Italian Ryegrass plant response rating (0 to 100 scale) ([7]; 125 g ai/ha, visual injury approx. 10 days after treatment): 0; Italian Ryegrass plant response rating [7, 14]: 20"
